According to publication PMC4141209 (FEBS Open Bio, 2014):
Read-outs that look alike come from different tables or passages of the source.

What was measured:
TlLhpI [1] = conditions: NADH 0.15 mM, NH4Cl 700 mM, Tris-HCl pH 8.0, 50 °C
TlLhpI [2] = assay: NADH oxidation at […] nm; format: biochemical, Thermococcus litoralis; conditions: NADH 0.15 mM, NH4Cl 700 mM, Tris-HCl pH 8.0, 50 °C
TlLhpI [3] = assay: NAD+ reduction at […] nm; format: biochemical, Thermococcus litoralis
TlLhpI [4] = conditions: NAD+ 1.5 mM, Bis-tris propane pH 10.5, 50 °C
TlLhpI [5] = conditions: NADH 0.15 mM, potassium phosphate pH 6.0, 50 °C
TlLhpI [6] = assay: NADH oxidation at […] nm; format: biochemical, Thermococcus litoralis; conditions: NADH 0.15 mM, potassium phosphate pH 6.0, 50 °C
[7] = NAD+-dependent oxidation, 50 °C
[8] = NAD+ 1.5 mM, Bis-tris propane pH 10.5, 50 °C

| Km (TlLhpI [2]) | Km (TlLhpI [3]; [8]) | Compound | other results |
| --- | --- | --- | --- |
| 9370 ± 230 µM |  | CC(=O)C(=O)O [Pyruvate] | Km (TlLhpI [1]): 62000 ± 12200 µM |
|  | 1120 ± 120 µM | O=C(O)[C@@H]1CCCN1 [L-Proline] | Km (TlLhpI [4]): 444 ± 8 µM |
| 8860 ± 910 µM |  | O=C(O)CC(=O)C(=O)O [Oxalacetate] |  |
|  | 1320 ± 100 µM | CC(C)C[C@H](N)C(=O)O [L-Leucine] |  |

The next lines start with the molecule.

| Compound | Km (TlLhpI [2]) | Km (TlLhpI [3]; [8]) | other results |
| --- | --- | --- | --- |
| CCCC(=O)C(=O)O [2-Oxovalerate] | 969 ± 93 µM |  | Km (TlLhpI [1]): 1820 ± 140 µM |
| O=C(O)[C@@H]1CCCCN1 [L-Pipecolate] |  |  | Km (TlLhpI [3]; [7]): 608 ± 115 µM |
| O=C(O)C1=NCCC1 [Pyr2C, Δ^1-pyrroline-2-carboxylate] |  |  | Km (TlLhpI [5]): 2770 ± 440 µM; Km (TlLhpI [6]): 944 ± 90 µM |
| CC(C)CC(=O)C(=O)O [4-Methyl-2-oxovalerate] | 2520 ± 450 µM |  |  |
| CCC(=O)C(=O)O [2-Oxobutyrate] | 701 ± 20 µM |  |  |
| CN[C@@H](C)C(=O)O [N-Methyl-L-alanine] |  |  | Km (TlLhpI [3]; [7]): 406 ± 44 µM |
| CCC[C@H](N)C(=O)O [L-2-Aminovalerate] |  | 306 ± 9 µM | Km (TlLhpI [4]): 2130 ± 300 µM |
| CC[C@H](N)C(=O)O [L-2-Aminobutyrate] |  | 6000 ± 290 µM |  |
| C[C@H](N)C(=O)O [L-Alanine] |  | 18200 ± 5000 µM | Km (TlLhpI [4]): 36900 ± 900 µM |
